Test results published in article PMC8667925, “New 1,2,4-oxadiazole derivatives with positive mGlu4 receptor modulation activity and antipsychotic-like properties” (Journal of Enzyme Inhibition and Medicinal Chemistry, 2021).
Read-outs that look alike come from different tables or passages of the source.

Experiment: pharmacokinetic study, plasma and brain, after i.p. administration
Assay type: in vivo, mice (male Albino Swiss)
Conditions: mouse, 10 mg/kg i.p.; for AUC / Cmax / half-life / Tmax: male, Albino Swiss, ip; for AUC: read-out: AUC (area under the curve); for Cmax: read-out: Cmax (maximum concentration); for half-life: read-out: T1/2 (terminal elimination half-life) (converted)
Method: The pharmacokinetic properties and brain uptake of 52 were further determined in mice after i.p. administration. The compound was administered at a dose of 10 mg/kg in 3% DMSO + 20% Captisol in water. The concentration of 52 was monitored in the plasma and the brain at six time points over 6 h (Figure 5).
The method described below was successfully applied to a pharmacokinetic study of 52 in mice (male Albino Swiss) after i.p. injection. Compound 52 was administered to mice at a dose of 10 mg/kg i.p. At 0.25, 0.50, 1.0, 2.0, 4.0, and 6.0 h (three animals were used for one time point) the mice were anaesthetised by the use of Morbital (Biowet, Puławy, Poland), and the blood was collected from the portal vein to tubes containing 5% EDTA. The mice were then perfused with 0.1 M PBS to remove remaining blood from the body, and the brains were taken out for the analysis. Blood was centrifuged at 2000 rpm for 10 min at 4 °C, and the plasma was collected and frozen at −80 °C for further analysis. Plasma and tissue samples from all drug-treated animals were thawed at room temperature prior to use. Standard protocol of sample preparation: 200 µL of acetonitrile was added to the Eppendorf tubes with 50 µL of studied plasma samples or tissue homogenate. Samples were mixed for 5 min on a mixer at 25 °C and 1400 rpm. Tubes were then centrifuged at 2000 × g for 15 min at 4 °C. A total of 180 µL of each supernatant was transferred to a plate well. Finally, each sample was injected onto the LC-MS column. Calibration curve serial dilution method: Plasma was spiked with a standard at different concentrations. Acetonitrile was added. After mixing and centrifugation, the supernatant was collected.
Plasma and tissue samples from all drug-treated animals at selected time points were analysed using a previously developed non-validated LC-MS/MS method. […] LC-MS analysis was carried out on a Bruker amaZon SL mass spectrometer using positive/negative ion ESI mode. Chromatographic separation was achieved on an Ascentis Express C18 column (5 cm × 2.1 mm, […], Supelco Technologies) at room temperature with a thermostatted column oven. A gradient elution of eluents A (acetonitrile (LiChrosolv, Reag. Ph Eur) + 0.1% formic acid (Sigma Aldrich, 98–100%)) and B (water +0.1% formic acid) was used for separation. The flow rate was set at 1 ml/min. The injection volume was 20 µL, and the time of injection was 4 min.

Which maximum brain concentration (brain) does the source give for `O=C(Nc1ccc(-c2noc(-c3ccccc3Cl)n2)c(Cl)c1)c1ccccn1` [Compound 52, N-(3-chloro-4-(5-(2-chlorophenyl)-1,2,4-oxadiazol-3-yl)phenyl)picolinamide] here?
The maximum brain concentration was 949.76 ng/mL.

What about the AUC (brain) of the same compound?
The AUC was 5.64 µM·h.

And the Cmax (brain)?
The Cmax was 2120 nM.

What about the half-life (brain) of the same compound?
Its half-life is 136 min.

And the Tmax (brain, read-out: Tmax (converted))?
The Tmax was 30 min.

And the AUC (plasma)?
The AUC was 0.37 µM·h.

And the Cmax (plasma)?
Its Cmax is 540 nM.

And the half-life (plasma)?
The half-life was 66 min.

What about the Tmax (plasma, read-out: Tmax (time at maximum observed concentration)) of the same compound?
Its Tmax is 15 min.

What about the maximum plasma concentration (plasma) of the same compound?
Its maximum plasma concentration is 243.22 ng/mL.
